{"source": "patent US20070128217A1", "about": "(priority 2003, published 2007)", "key": {"[1]": {"tested_on": "control sera (pooled serum of ten healthy LUMC hospital workers; commercial negative donor pooled serum from the Dutch bloodbank)", "assay_type": "binding, human", "design": "Binding of Control serum LUMC to linear peptides / Binding of Control serum Blood-bank to linear peptides / Binding of Control serum LUMC to looped peptides / Binding of Control Serum Blood-Bank to Looped peptides / Binding of Control serum LUMC to linear peptides of the protein M of SARS-CoV Urbani / Binding of Control serum Blood-bank to linear peptides of the protein M of SARS-CoV Urbani / Binding of Control serum LUMC to looped peptides of the protein M of SARS-CoV Urbani / Binding of Control Serum Blood-Bank to Looped peptides of the protein M of SARS-CoV Urbani: unit not given here"}, "[2]": {"tested_on": "antibodies in sera from SARS patients (sera 1a, 1b, 2, 6, 37, 62, London, SARS-yellow, SARS-green)", "assay_type": "binding, human", "design": "Binding of serum 6 to linear peptides of protein X1 of SARS-CoV Urbani / Binding of serum 37 to linear peptides of protein X1 of SARS-CoV Urbani / Binding of serum 6 to looped/cyclic peptide (PEPSCAN-ELISA) / Binding of serum 37 to looped/cyclic peptide (PEPSCAN-ELISA) / Binding of serum 37 to looped/cyclic peptides of protein X1 of SARS-CoV Urbani / Binding of serum 6 to linear peptides of protein X2 / Binding of serum 37 to linear peptides of protein X2 / Binding of serum 37 to looped/cyclic peptides of protein X2 of SARS-CoV Urbani / Binding of serum 6 to linear peptides of protein M of SARS-CoV Urbani / Binding of serum 37 to linear peptides of protein M of SARS-CoV Urbani / Binding of serum 6 to looped/cyclic peptides of protein M of SARS-CoV Urbani / Binding of serum 37 to looped/cyclic peptides of protein M of SARS-CoV Urbani / Binding of serum 6 to linear peptides of protein X3 of SARS-CoV Urbani / Binding of serum 37 to linear peptides of protein X3 of SARS-CoV Urbani / Binding of serum 37 to looped/cyclic peptides of protein X3 of SARS-CoV Urbani / Binding of serum 6 to linear peptides of protein X4 of SARS-CoV Urbani / Binding of serum 37 to linear peptides of protein X4 of SARS-CoV Urbani / Binding of serum 37 to looped/cyclic peptides of protein X4 of SARS-CoV Urbani / Binding of serum 6 to linear peptides of protein X5 of SARS-CoV Urbani / Binding of serum 37 to linear peptides of protein X5 of SARS-CoV Urbani / Binding of serum 37 to looped/cyclic peptides of protein X5 of SARS-CoV Urbani / Binding of serum 6 to linear peptides of protein N of SARS-CoV Urbani / Binding of serum 37 to linear peptides of protein N of SARS-CoV Urbani / Binding of serum 6 to linear peptide (PEPSCAN-ELISA) / Binding of serum 1a to looped/cyclic peptides of protein N of SARS-CoV Urbani / Binding of serum 1b to looped/cyclic peptides of protein N of SARS-CoV Urbani / Binding of serum 2 to looped/cyclic peptides of protein N of SARS-CoV Urbani / Binding of serum 6 to looped/cyclic peptides of protein N of SARS-CoV Urbani / Binding of serum 37 to looped/cyclic peptides of protein N of SARS-CoV Urbani / Binding of serum 62 to looped/cyclic peptides of protein N of SARS-CoV Urbani / Binding of serum London to looped/cyclic peptides of protein N of SARS-CoV Urbani / Binding of serum SARS-green to looped/cyclic peptides of protein N of SARS-CoV Urbani: unit not given here"}, "[3]": {"tested_on": "rabbit serum obtained by immunizing a rabbit with the SARS-CoV strain Frankfurt 1", "assay_type": "binding", "design": "Binding of a rabbit serum to linear peptides / Binding of a rabbit serum to looped peptides / Rabbit serum linear peptides / Rabbit serum looped peptides / Binding of a rabbit serum to linear peptides of protein N of SARS-CoV Urbani (Rabbit serum linear peptides) / Binding of a rabbit serum to looped/cyclic peptides of protein N of SARS-CoV Urbani (Rabbit serum looped peptides): unit not given here"}}}
{"sequence": "IKDLPKEITVATSRT", "values": [{"measurement": "Binding of Control Serum Blood-Bank to Looped peptides of the protein M of SARS-CoV Urbani", "setting": "[1]", "result": 0.5}, {"measurement": "Binding of Control serum Blood-bank to linear peptides of the protein M of SARS-CoV Urbani", "setting": "[1]", "result": 0.6}, {"measurement": "Binding of Control serum LUMC to linear peptides of the protein M of SARS-CoV Urbani", "setting": "[1]", "result": 0.4}, {"measurement": "Binding of Control serum LUMC to looped peptides of the protein M of SARS-CoV Urbani", "setting": "[1]", "result": 0.7}, {"measurement": "Binding of serum 1a to linear peptides of protein M of SARS-CoV Urbani", "setting": "[2]", "result": 0.7}, {"measurement": "Binding of serum 1a to looped/cyclic peptides of protein M of SARS-CoV Urbani", "setting": "[2]", "result": 0.4}, {"measurement": "Binding of serum 1b to linear peptides of protein M of SARS-CoV Urbani", "setting": "[2]", "result": 0.5}, {"measurement": "Binding of serum 1b to looped/cyclic peptides of protein M of SARS-CoV Urbani", "setting": "[2]", "result": 0.4}, {"measurement": "Binding of serum 2 to linear peptides of protein M of SARS-CoV Urbani", "setting": "[2]", "result": 0.6}, {"measurement": "Binding of serum 2 to looped/cyclic peptides of protein M of SARS-CoV Urbani", "setting": "[2]", "result": 0.5}, {"measurement": "Binding of serum 6 to linear peptides of protein M of SARS-CoV Urbani", "setting": "[2]", "result": 0.3}, {"measurement": "Binding of serum 6 to looped/cyclic peptides of protein M of SARS-CoV Urbani", "setting": "[2]", "result": 0.4}, {"measurement": "Binding of serum 37 to linear peptides of protein M of SARS-CoV Urbani", "setting": "[2]", "result": 0.8}, {"measurement": "Binding of serum 37 to looped/cyclic peptides of protein M of SARS-CoV Urbani", "setting": "[2]", "result": 0.6}, {"measurement": "Binding of serum 62 to linear peptides of protein M of SARS-CoV Urbani", "setting": "[2]", "result": 0.8}, {"measurement": "Binding of serum 62 to looped/cyclic peptides of protein M of SARS-CoV Urbani", "setting": "[2]", "result": 0.6}, {"measurement": "Binding of serum London to linear peptides of protein M of SARS-CoV Urbani", "setting": "[2]", "result": 0.3}, {"measurement": "Binding of serum London to looped/cyclic peptides of protein M of SARS-CoV Urbani", "setting": "[2]", "result": 0.2}, {"measurement": "Binding of serum SARS-green to linear peptides of protein M of SARS-CoV Urbani", "setting": "[2]", "result": 0.2}, {"measurement": "Binding of serum SARS-green to looped/cyclic peptides of protein M of SARS-CoV Urbani", "setting": "[2]", "result": 0.3}, {"measurement": "Binding of serum SARS-yellow to linear peptides of protein M of SARS-CoV Urbani", "setting": "[2]", "result": 0.0}, {"measurement": "Binding of serum SARS-yellow to looped/cyclic peptides of protein M of SARS-CoV Urbani", "setting": "[2]", "result": 0.9}, {"measurement": "Rabbit serum linear peptides", "setting": "[3]", "result": 0.3}, {"measurement": "Rabbit serum looped peptides", "setting": "[3]", "result": 0.2}]}
{"sequence": "LLLVAAGMEAQFLYL", "values": [{"measurement": "Binding of Control Serum Blood-Bank to Looped peptides", "setting": "[1]", "result": 0.5}, {"measurement": "Binding of Control serum Blood-bank to linear peptides", "setting": "[1]", "result": 0.6}, {"measurement": "Binding of Control serum LUMC to linear peptides", "setting": "[1]", "result": 1.0}, {"measurement": "Binding of Control serum LUMC to looped peptides", "setting": "[1]", "result": 0.7}, {"measurement": "Binding of serum 1a to linear peptides of protein X1 of SARS-CoV Urbani", "setting": "[2]", "result": 0.9}, {"measurement": "Binding of serum 1a to looped/cyclic peptide (PEPSCAN-ELISA)", "setting": "[2]", "result": 0.6}, {"measurement": "Binding of serum 1b to linear peptides of protein X1 of SARS-CoV Urbani", "setting": "[2]", "result": 0.8}, {"measurement": "Binding of serum 1b to looped/cyclic peptide (PEPSCAN-ELISA)", "setting": "[2]", "result": 0.5}, {"measurement": "Binding of serum 2 to linear peptides of protein X1 of SARS-CoV Urbani", "setting": "[2]", "result": 0.6}, {"measurement": "Binding of serum 2 to looped/cyclic peptide (PEPSCAN-ELISA)", "setting": "[2]", "result": 0.6}, {"measurement": "Binding of serum 6 to linear peptides of protein X1 of SARS-CoV Urbani", "setting": "[2]", "result": 0.5}, {"measurement": "Binding of serum 6 to looped/cyclic peptide (PEPSCAN-ELISA)", "setting": "[2]", "result": 0.3}, {"measurement": "Binding of serum 37 to linear peptides of protein X1 of SARS-CoV Urbani", "setting": "[2]", "result": 0.6}, {"measurement": "Binding of serum 37 to looped/cyclic peptide (PEPSCAN-ELISA)", "setting": "[2]", "result": 0.7}, {"measurement": "Binding of serum 62 to linear peptides of protein X1 of SARS-CoV Urbani", "setting": "[2]", "result": 0.6}, {"measurement": "Binding of serum 62 to looped/cyclic peptide (PEPSCAN-ELISA)", "setting": "[2]", "result": 0.7}, {"measurement": "Binding of serum London to linear peptides of protein X1 of SARS-CoV Urbani", "setting": "[2]", "result": 0.2}, {"measurement": "Binding of serum London to looped/cyclic peptide (PEPSCAN-ELISA)", "setting": "[2]", "result": 0.2}, {"measurement": "Binding of serum SARS-green to linear peptides of protein X1 of SARS-CoV Urbani", "setting": "[2]", "result": 0.1}, {"measurement": "Binding of serum SARS-green to looped/cyclic peptide (PEPSCAN-ELISA)", "setting": "[2]", "result": 0.5}, {"measurement": "Binding of serum SARS-yellow to linear peptides of protein X1 of SARS-CoV Urbani", "setting": "[2]", "result": 0.6}, {"measurement": "Binding of serum SARS-yellow to looped/cyclic peptide (PEPSCAN-ELISA)", "setting": "[2]", "result": 0.6}, {"measurement": "Binding of a rabbit serum to linear peptides", "setting": "[3]", "result": 0.2}, {"measurement": "Binding of a rabbit serum to looped peptides", "setting": "[3]", "result": 0.5}]}
{"sequence": "SQIQLSLLKVTAFQH", "values": [{"measurement": "Binding of Control Serum Blood-Bank to Looped peptides", "setting": "[1]", "result": 0.6}, {"measurement": "Binding of Control serum Blood-bank to linear peptides", "setting": "[1]", "result": 0.5}, {"measurement": "Binding of Control serum LUMC to linear peptides", "setting": "[1]", "result": 0.7}, {"measurement": "Binding of Control serum LUMC to looped peptides", "setting": "[1]", "result": 0.6}, {"measurement": "Binding of serum 1a to linear peptides of protein X2", "setting": "[2]", "result": 0.6}, {"measurement": "Binding of serum 1a to looped/cyclic peptides of protein X2 of SARS-CoV Urbani", "setting": "[2]", "result": 0.5}, {"measurement": "Binding of serum 1b to linear peptides of protein X2", "setting": "[2]", "result": 0.5}, {"measurement": "Binding of serum 1b to looped/cyclic peptides of protein X2 of SARS-CoV Urbani", "setting": "[2]", "result": 0.5}, {"measurement": "Binding of serum 2 to linear peptides of protein X2", "setting": "[2]", "result": 0.4}, {"measurement": "Binding of serum 2 to looped/cyclic peptides of protein X2 of SARS-CoV Urbani", "setting": "[2]", "result": 0.4}, {"measurement": "Binding of serum 6 to linear peptides of protein X2", "setting": "[2]", "result": 0.5}, {"measurement": "Binding of serum 6 to looped/cyclic peptides of protein X2 of SARS-CoV Urbani", "setting": "[2]", "result": 0.6}, {"measurement": "Binding of serum 37 to linear peptides of protein X2", "setting": "[2]", "result": 0.5}, {"measurement": "Binding of serum 37 to looped/cyclic peptides of protein X2 of SARS-CoV Urbani", "setting": "[2]", "result": 0.4}, {"measurement": "Binding of serum 62 to linear peptides of protein X2", "setting": "[2]", "result": 0.4}, {"measurement": "Binding of serum 62 to looped/cyclic peptides of protein X2 of SARS-CoV Urbani", "setting": "[2]", "result": 0.6}, {"measurement": "Binding of serum London to linear peptides of protein X2", "setting": "[2]", "result": 0.3}, {"measurement": "Binding of serum London to looped/cyclic peptides of protein X2 of SARS-CoV Urbani", "setting": "[2]", "result": 1.0}, {"measurement": "Binding of serum SARS-green to linear peptides of protein X2", "setting": "[2]", "result": 0.2}, {"measurement": "Binding of serum SARS-green to looped/cyclic peptides of protein X2 of SARS-CoV Urbani", "setting": "[2]", "result": 0.2}, {"measurement": "Binding of serum SARS-yellow to linear peptides of protein X2", "setting": "[2]", "result": 0.3}, {"measurement": "Binding of serum SARS-yellow to looped/cyclic peptides of protein X2 of SARS-CoV Urbani", "setting": "[2]", "result": 0.7}, {"measurement": "Binding of a rabbit serum to linear peptides", "setting": "[3]", "result": 0.7}, {"measurement": "Binding of a rabbit serum to looped peptides", "setting": "[3]", "result": 0.5}]}
